Laboratory results published in patent US7517840B2, “Optimized perfumery for rinse-off products” (Givaudan Fragrances Corporation, priority 2005, dated 2009).
“And” between values parts separate entries of the source, which are not always exact repeats. Equal values may be shown once. Read-outs that look alike come from different tables or passages of the source.

Tests used:
[1] = cited from earlier work; for Odor Detection Threshold: Table 24, Floral fragrance; for exp ODT water: Booleans database
[2] = GC-MS headspace release profile of perfume in shampoo, 1/100 dilution in water; type: physicochemical; conditions: Tropical Fruit Perfume
Description: Experimental Procedure: Individual odorant to be tested was added to 20 g of shampoo formulation (see formula below in Table 4) at 0.1%.
A 10 gram sample of formulation and fragrance was added to an empty 1000 ml pyrex beaker. This beaker was then filled with 1000 ml of 120 F tap water. Beaker with diluted shampoo sample was then immediately placed into a semi-enclosed plexiglass chamber.
Headspace Sampling: Once beaker was placed into chamber a Carboxan SPME field fiber was held at the top-side opening of the chamber over the beaker containing the sample. […] […] Top of plexiglass chamber was held open for entire 5 minutes of headspace sampling.

| Compound | GC Abundance ([2]; 40 seconds) | GC Abundance ([2]; 50 seconds) | GC Abundance ([2]; 30 seconds) | other results |
| --- | --- | --- | --- | --- |
| CCOC(=O)C1OC1c1ccccc1 (centres unmarked) [ETHYL PHENYL GLYCIDATE] | – | – | – | ODT ([1]; Table 30, berry note): 50 ppb or less |
| CC(=O)OC1CC2CC1C1CC=CC21 (centres unmarked) | – | – | – | Odor Detection Threshold [1]: 50 ppb or less |
| OCc1ccccc1 [BENZYL ALCOHOL] | 50 | 100 | – | – |
| COC(=O)c1c(C)cc(O)c(C)c1O [METHYL ATRATATE] | – | 50 | – | – |
| CC(C=O)Cc1ccc2c(c1)OCO2 (centres unmarked) [HELIONAL] | 500 | 5000 | – | – |
| C/C=C/C(=O)C1C(C)C=CCC1(C)C (centres unmarked) [δ-DAMASCONE] | – | – | – | ODT ([1]; Table 28, fig note): 50 ppb or less |
| CC(C)CC1CC(C)(O)CCO1 (centres unmarked) [FLOROL] | 10000 | 15000 | – | – |
| CC/C=C\CCO [CIS-3-HEXEN-1-OL] | 14000 | 14000 | 14000 | GC Abundance ([2]; 20 seconds): 14000 |
| CC1(C)CCC[C@]2(C)[C@H]3CCO[C@]3(C)CC[C@@H]12 [AMBROXAN] | – | 1000 | – | – |
| VERTOFIX COEUR | – | 50 | – | – |
| CC=CC(=O)C1=C(C)C=CCC1(C)C [DAMASCENONE, 1-(2,6,6-Trimethylcyclohexa-1,3-dienyl)-2-buten-1-one] | – | 1000 | – | exp ODT water [1]: 0.002 ppb |
| CC(=O)OC(C)(C)Cc1ccccc1 [DIMETHYL BENZYL CARBINYL ACETATE] | 8000 | 8000 | 2000 | – |
| CC(=O)OCc1ccccc1 [BENZYL ACETATE] | 18000 | 18000 | 17000 | GC Abundance ([2]; 20 seconds): 12000 |
| CCCCCCC1CCC(=O)O1 (centres unmarked) [GAMMA-DECALACTONE, 5-Hexyldihydro-2(3H)-furanone] | 4000 | 7000 | – | – |
| CCCCCOC(C)=O [Pentyl Acetate] | – | – | – | exp ODT water [1]: 43 ppb |
| CCCC(=O)OCC [ETHYL BUTYRATE, Ethyl butyrate] | 2000 | 800 | 2800 | GC Abundance ([2]; 10 seconds): 2800; GC Abundance ([2]; 20 seconds): 2800; exp ODT water [1]: 1 ppb |
| C=CCOC(=O)CCCCCC [ALLYL HEPTOATE] | 12000 | 12000 | 10000 | GC Abundance ([2]; 20 seconds): 4000 |
| O=C1CCCCCCCCCCCC(=O)OCCO1 [ETHYLENE BRASSYLATE] | – | 20 | – | – |
| CC/C=C\CCOC(C)=O [CIS-3-HEXENYL ACETATE] | 14000 | 14000 | 14000 | GC Abundance ([2]; 20 seconds): 5000 |
| CC(C)=CCCC(C)C=O (centres unmarked) [MELONAL, 2,6-Dimethyl-5-heptenal] | – | – | – | exp ODT water [1]: 16 ppb; ODT ([1]; Table 26, cucumber-melon note): 50 ppb or less; odor detection threshold values in water [1]: 16 ppb |
| CC(C)=CCCC(C)CCCC(C)C=O (centres unmarked) [ADOXAL, 2,6,10-Trimethyl-9-undecenal] | 300 | 3000 | – | – |
| CCCCOC(C)=O [Butyl acetate] | – | – | – | exp ODT water [1]: 44-88 ppb |
| O=C1CCCCCCCCCCCCCCO1 [EXALTOLIDE TOTAL] | – | 50 | – | – |
| Cc1ccc2c(c1)OCC(=O)CO2 [CALONE] | – | 1000 | – | – |
| CCC(C)(O)CCC=C(C)C (centres unmarked) [DIHYDROLINALOOL] | 3000 | 3000 | 3000 | GC Abundance ([2]; 20 seconds): 3000 |
| CC(C)=CCCC(C)CCO (centres unmarked) [CITRONELLOL AJ, FCC, CITRONELLOL] | 7000 | 7000 | 7000 | GC Abundance ([2]; 20 seconds): 7000 |
| CCCCCCC(C=O)=Cc1ccccc1 [HEXYL CINNAMIC ALDEHYDE, hexyl cinnamic aldehyde] | 2000 | 9000 | – | – |

| Compound | GC Abundance ([2]; 40 seconds) | GC Abundance ([2]; 50 seconds) | GC Abundance ([2]; 30 seconds) | other results |
| --- | --- | --- | --- | --- |
| COC(=O)c1ccccc1N [METHYL AN[…], METHYL ANTHRANILATE] | – | – | – | Odor Detection Threshold [1]: 50 ppb or less |
| CCCCCOC(=O)CCC [Pentyl butyrate] | – | – | – | exp ODT water [1]: 44-87 ppb |
| CC(=O)OC(C)(C)C1CC=C(C)CC1 (centres unmarked) [TERPINYL ACETATE] | 9000 | 9000 | 1000 | – |
| CC1=CCC(CCC(C)C(C)O)C1(C)C (centres unmarked) [SANDALORE] | – | 2000 | – | – |
| C=CCOC(=O)CCC1CCCCC1 [ALLYL CYCLOHEXYL PROPIONATE] | 7000 | 10000 | – | – |
| CC/C=C\CCOC(=O)OC [LIFFAROME] | 3000 | 3000 | 3000 | GC Abundance ([2]; 20 seconds): 3000 |
| CC(=O)/C=C/C1C(C)=CCCC1(C)C (stereo not drawn) [IONONE ALPHA, alpha ionone] | – | – | – | exp ODT water [1]: 0.4-10 ppb |
| CCC=C(C)C(O)CCCCC (centres unmarked) [UNDECAVERTOL, 4-Methyl-3-decen-5-ol] | 10000 | 10000 | – | – |
| C=CC(C)CCCC(C)(C)O (centres unmarked) [DIHYDROMYRCENOL] | 15000 | 15000 | 15000 | GC Abundance ([2]; 10 seconds): 500; GC Abundance ([2]; 20 seconds): 15000 |
| CCC(=O)OC/C=C(\C)CCC=C(C)C [trans-3,7-Dimethyl-2,6-octadien-1-yl propanoate] | – | – | – | exp ODT water [1]: 10 ppb |
| CCOC(=O)C1OC1(C)c1ccccc1 (centres unmarked) [Ethyl 2,3-epoxy-3-methyl-3-phenylpropionate] | – | – | – | exp ODT water [1]: 25 ppb |
| CC1=CC(C)C(C=O)CC1 (centres unmarked) [TRIPLAL] | 10000 | 6000 | 14000 | GC Abundance ([2]; 10 seconds): 1000; GC Abundance ([2]; 20 seconds): 14000 |
| C/C=C/C(=O)C1=C(C)CCCC1(C)C [BETA DAMASCONE FAB, β-damascone] | – | – | – | Odor Detection Threshold [1]: 50 ppb or less; ODT ([1]; Table 30, berry note): 50 ppb or less |
| CC=Cc1ccc(O)c(OC)c1 [1-Hydroxy-2-methoxy-4-propenylbenzene] | – | – | – | exp ODT water [1]: 30-40 ppb |
| CCCCCC1CCC(=O)O1 (centres unmarked) [ALDEHYDE C-18] | 4000 | 4000 | 2000 | GC Abundance ([2]; 20 seconds): 2000 |
| CC(=O)OC1CCC(C(C)(C)C)CC1 (centres unmarked) [VERTENEX HC] | 8000 | 10000 | 2000 | – |
| C=CC(C)(O)CCC=C(C)CC (mixture of isomers) [ETHYL LINALOOL] | 10000 | 10000 | 10000 | GC Abundance ([2]; 20 seconds): 5000 |
| C=C(C)C1CC=C(C)C(=O)C1 (centres unmarked) [I-1-Methyl-4-isopropenyl-6-cyclohexen-2-one] | – | – | – | exp ODT water [1]: 50 ppb |
| CC1OC(C)C2Cc3ccccc3C2O1 (centres unmarked) [MAGNOLAN/CORPS 719] | 1000 | 3000 | – | – |
| COc1cc(C=O)ccc1O [VANILLIN NF, 4-Hydroxy-3-methoxybenzaldehyde] | – | – | – | exp ODT water [1]: 25-58 ppb and 20-200 ppb |
| Cc1ccc(C(C)C)c(O)c1 [5-Methyl-2-isopropylphenol] | – | – | – | exp ODT water [1]: 400 ppb |
| CCC(=O)OCc1ccccc1 [BENZYL PROPIONATE] | 6000 | 6000 | 6000 | GC Abundance ([2]; 20 seconds): 2000 |
| CC1=C(O)C(=O)C(C)O1 (centres unmarked) [STRAWBERRY FURANONE] | – | – | – | ODT ([1]; Table 30, berry note): 50 ppb or less |
| CC/C(=C\CC1CC=C(C)C1(C)C)CO (centres unmarked) [BACDANOL] | 100 | 5000 | – | – |
| CCCCCCCCCC=CC=O [MANDARIN ALDEHYDE] | – | – | – | ODT ([1]; Table 32, citrus note): 50 ppb or less |
| CCCCCCCC=O [1-Octanal] | – | – | – | exp ODT water [1]: 30 ppb |
